*1 amine or outer side, *2 acyl side, *3 side chain or, on linkers, in order; H or OH if unused. Where a SMILES comes first, the peptide text is derived from it. [ ]: non-standard residue; d: D form. The star is where a group is joined. X1 = O=C(NCCN(CC(=O)[*:2])[*:1])OCc1ccccc1; 1Nal = N[C@@H](Cc1cccc2ccccc12)C(=O)O; Gly(N-2-aminoethyl) = NCCNCC(=O)O; Cbz = O=C(OCc1ccccc1)*

T1 sequence (P08514 32-887 limits assumed): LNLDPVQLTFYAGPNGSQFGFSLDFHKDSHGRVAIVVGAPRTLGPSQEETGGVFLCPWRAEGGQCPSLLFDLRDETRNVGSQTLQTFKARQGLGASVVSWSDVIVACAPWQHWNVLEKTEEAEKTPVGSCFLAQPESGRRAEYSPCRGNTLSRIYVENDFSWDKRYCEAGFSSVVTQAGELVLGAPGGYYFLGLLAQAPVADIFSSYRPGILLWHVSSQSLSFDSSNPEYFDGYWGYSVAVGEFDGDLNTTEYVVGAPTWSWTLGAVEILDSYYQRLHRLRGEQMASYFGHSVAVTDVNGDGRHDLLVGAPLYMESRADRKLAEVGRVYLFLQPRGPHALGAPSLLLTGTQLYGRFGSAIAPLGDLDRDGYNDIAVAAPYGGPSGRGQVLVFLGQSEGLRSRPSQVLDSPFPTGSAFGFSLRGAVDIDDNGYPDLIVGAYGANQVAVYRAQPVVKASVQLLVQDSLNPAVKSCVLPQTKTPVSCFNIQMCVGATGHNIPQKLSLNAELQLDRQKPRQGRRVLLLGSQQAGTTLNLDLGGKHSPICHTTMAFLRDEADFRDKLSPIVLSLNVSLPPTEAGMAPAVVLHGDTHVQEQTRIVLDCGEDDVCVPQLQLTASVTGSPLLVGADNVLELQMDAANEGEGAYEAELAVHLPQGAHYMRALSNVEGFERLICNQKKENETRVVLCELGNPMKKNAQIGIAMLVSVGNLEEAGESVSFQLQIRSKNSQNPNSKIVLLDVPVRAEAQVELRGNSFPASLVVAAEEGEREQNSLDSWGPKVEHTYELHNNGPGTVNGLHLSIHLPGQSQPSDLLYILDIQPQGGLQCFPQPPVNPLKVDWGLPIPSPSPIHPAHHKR
T1 sequence (P08514 891-1039 partner limits assumed): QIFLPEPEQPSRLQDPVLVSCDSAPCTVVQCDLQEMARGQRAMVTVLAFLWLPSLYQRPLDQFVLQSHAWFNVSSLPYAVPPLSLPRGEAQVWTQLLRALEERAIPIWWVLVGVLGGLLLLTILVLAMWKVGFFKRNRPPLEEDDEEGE
T1 sequence (P05106 27-788): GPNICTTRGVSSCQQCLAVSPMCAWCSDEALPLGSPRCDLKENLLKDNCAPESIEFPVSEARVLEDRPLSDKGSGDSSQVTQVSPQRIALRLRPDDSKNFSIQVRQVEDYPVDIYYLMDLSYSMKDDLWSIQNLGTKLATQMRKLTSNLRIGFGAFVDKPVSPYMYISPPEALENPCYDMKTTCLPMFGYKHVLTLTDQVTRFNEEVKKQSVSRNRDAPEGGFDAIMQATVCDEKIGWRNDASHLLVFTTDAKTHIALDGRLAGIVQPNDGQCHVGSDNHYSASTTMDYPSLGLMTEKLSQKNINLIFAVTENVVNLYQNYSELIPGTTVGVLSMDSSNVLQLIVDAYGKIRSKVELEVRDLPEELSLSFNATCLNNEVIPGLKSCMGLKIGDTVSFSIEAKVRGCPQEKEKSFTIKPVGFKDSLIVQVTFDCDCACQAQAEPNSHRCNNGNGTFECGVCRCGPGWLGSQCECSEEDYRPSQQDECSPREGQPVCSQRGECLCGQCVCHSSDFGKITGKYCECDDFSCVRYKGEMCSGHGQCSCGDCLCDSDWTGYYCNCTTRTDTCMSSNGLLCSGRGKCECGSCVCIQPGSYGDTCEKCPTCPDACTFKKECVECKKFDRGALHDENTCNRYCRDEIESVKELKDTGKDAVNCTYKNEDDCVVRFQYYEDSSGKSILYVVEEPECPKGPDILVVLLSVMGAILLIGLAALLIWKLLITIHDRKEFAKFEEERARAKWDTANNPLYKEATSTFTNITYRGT

The subject of one series is mouse. Kind of series: Acute toxicity, intravenous, mouse. In kind it is in vivo. The conditions noted are these: intravenously in the mouse. The method, then:
The compounds of formula I have a low toxicity. Thus the product of Example 2 has a LD50 of 600 mg/kg intravenously in the mouse.
With `CC(C)[C@H](NC(=O)[C@H](CC(=O)O)NC(=O)CNC(=O)C(N)Cc1ccc(C(=N)N)cc1)C(=O)O` (mixture of isomers) [Example 2, [3-(p-amidinophenyl)-DL-alanyl]-Gly-Asp-Val-OH], the LD50 amounted to 600 mg/kg.

Another series has as its target T1, fibrinogen receptor, glycoprotein IIb/IIIa (Homo sapiens, UniProt P05106+P08514).
T1 construct: from tissue
Kind of series: Inhibition of fibrinogen binding to immobilized glycoprotein IIb/IIIa (ELISA). The conditions noted are these: concentration required to inhibit binding of fibrinogen to the immobilized receptor from human blood platelets by 50%. The method, then:
The glycoprotein IIb/IIIa is obtained-from Triton X-100 extracts of human blood platelets and purified by lectin affinity chromatography (Analytical Biochemistry 151, 1985, 169-177) and chromatography on an Arg-Gly-Asp-Ser affinity column (Science 231, 1986, 1559-62). The thus-obtained receptor protein is bonded to microtitre plates. The specific binding of fibrinogen to the immobilized receptor is determined with the aid of an ELISA system ("enzyme-linked immunosorbent assay"). The IC50 values hereinafter correspond to that concentration of the test substance which is required to inhibit the binding of fibrinogen to the immobilized receptor by 50%: […]
In turn, `N=C(N)c1ccc(CCC(=O)NCC(=O)N[C@@H](CC(=O)O)C(=O)N[C@@H](Cc2cccc3ccccc23)C(=O)O)cc1` [Example 19, (p-amidinohydrocinnamoyl)-Gly Asp-Nal(1)-OH] displayed an IC50 of 11 nM. In turn, `[N-]=[N+]=Nc1ccccc1C(=O)N[C@@H](CCCNC(=N)N)C(=O)NCC(=O)N[C@@H](CC(=O)O)C(=O)Nc1ccccc1C(=O)O` [Example 13, N-[(o-azidobenzoyl)-Arg-Gly-Asp]-anthranilic acid] yielded an IC50 of 110 nM. The same measure, in the same setting: the value for `CC(C)[C@H](NC(=O)[C@H](CC(=O)O)NC(=O)CNC(=O)[C@H](CCCNC(=N)N)NC(=O)CN(CCNC(=O)OCc1ccccc1)C(=O)OCc1ccccc1)C(=O)O` [Example 6, Z-Aeg(Z)-Arg-Gly-Asp-Val-OH] (Cbz-[X1]RGDV-OH) was 150 nM. On the same count and under the same terms, the value for `CC(C)[C@H](NC(=O)[C@H](CC(=O)O)NC(=O)CNC(=O)CCc1ccc(CN)cc1)C(=O)O` [Example 23, (p-aminomethylhydrocinnamoyl)-Gly-Asp-Val-OH] was 210 nM; that for `CC(C)[C@H](NC(=O)[C@H](CC(=O)O)NC(=O)CNC(=O)C(Cc1ccc(C(=N)N)cc1)NC(=O)OC(C)(C)C)C(=O)O` (mixture of isomers) [Example 17, [N-Boc-3-(p-amidinophenyl)-DL-alanyl]-Gly-Asp-Val-OH] was 16 nM. Still for that read-out and setting: next, `CC(=N)NCCCC[C@H](NC(=O)OC(C)(C)C)C(=O)NCC(=O)N[C@@H](CC(=O)O)C(=O)N[C@H](C(=O)O)C(C)C` [Example 12, [N2-Boc-N6 -(1-iminoethyl)-L-lysyl]Gly-Asp-Val- -OH]: 110 nM; `CC(C)[C@H](NC(=O)[C@H](CC(=O)O)NC(=O)CNC(=O)C(N)Cc1ccc(C(=N)N)cc1)C(=O)O` (mixture of isomers) [Example 2, [3-(p-amidinophenyl)-DL-alanyl]-Gly-Asp-Val-OH]: 16 nM. The molecule `CC(C)[C@H](NC(=O)[C@H](CC(=O)O)NC(=O)CNC(=O)[C@H](N)Cc1ccc(C(=N)N)cc1)C(=O)O` [Example 20, [3-(p-amidinophenyl)-D-alanyl]-Gly-Asp-Val-OH] showed an IC50 of 22 nM. Same read-out and setting: next, `N=C(N)NCCC[C@H](NC(=O)CNCCN)C(=O)NCC(=O)N[C@@H](CC(=O)O)C(=O)N[C@@H](CO)C(=O)O` [Example 8, Aeg-Arg-Gly-Asp-Ser-OH]: 110 nM; `CC(C)[C@H](NC(=O)[C@H](CC(=O)O)NC(=O)CNC(=O)CCc1ccc(C(=N)N)cc1)C(=O)O` [Example 24, (p-amidinohydrocinnamoyl)-Gly-Asp-Val-OH]: 35 nM. Same read-out and setting: next, `CC[C@H](C)[C@H](NC(=O)[C@H](CC(=O)O)NC(=O)CNC(=O)[C@H](CCCNC(=N)N)NC(=O)CNCCN)C(=O)O` [Example 11, Aeg Arg- Gly-Asp-Ile-OH] (H-[Gly(N-2-aminoethyl)]RGDI-OH): 120 nM; `CC(C)[C@H](NC(=O)[C@H](CC(=O)O)NC(=O)CNC(=O)Cc1ccc(C(=N)N)cc1)C(=O)O` [Example 27, (p-amidinophenyl)acetyl-Gly-Asp-Val-OH]: 1.9 nM.

Take `N=C(N)c1ccc(CC(N)C(=O)NCC(=O)N[C@@H](CC(=O)O)C(=O)N[C@@H](Cc2cccc3ccccc23)C(=O)O)cc1` (mixture of isomers) [Example 16, [3-(p-amidinophenyl)-DL-alanyl]-Gly-Asp-Nal(1)-OH]: the IC50 was 22 nM. The same measure, in the same setting: next, `N=C(N)NCCC[C@H](NC(=O)CNCCN)C(=O)NCC(=O)N[C@@H](CC(=O)O)C(=O)N[C@@H](Cc1cccc2ccccc12)C(=O)O` [Example 10, N-Aeg-Arg-Gly-Asp-Nal(1)-OH] (H-[Gly(N-2-aminoethyl)]RGD[1Nal]-OH): 38 nM; `CC(C)[C@H](NC(=O)[C@H](CC(=O)O)NC(=O)CNC(=O)[C@@H](N)Cc1ccc(C(=N)N)cc1)C(=O)O` [Example 25, [3-(p-amidinophenyl)-L-alanyl]-Gly-Asp-Val-OH]: 23 nM.

As to `CC(C)[C@H](NC(=O)[C@H](CC(=O)O)NC(=O)CNC(=O)[C@H](CCCNC1=NC2(O)CCCCC2(O)N1)NC(=O)OC(C)(C)C)C(=O)O` (stereo partly drawn) [Example 14, [N2-Boc-N5-(3a,4,5,6,7,7a-hexahydro-3a,7a-dihydroxy-1H-benzimidazol-2-yl)- L-ornithyl]-Gly-Asp-Val-OH], the 50% inhibitory concentration (IC50) was 54 nM. `CC(C)[C@H](NC(=O)[C@H](CC(=O)O)NC(=O)CNC(=O)COc1ccc(C(=N)N)cc1)C(=O)O` [Example 26, (p-amidinophenoxy)acetyl-Gly-Asp Val-OH] showed a half-inhibitory concentration (IC50) of 5 nM.

Molecule `CC(C)[C@H](NC(=O)[C@H](CC(=O)O)NC(=O)CNC(=O)C(Cc1ccc(NC(=N)N)cc1)NC(=O)OC(C)(C)C)C(=O)O` (mixture of isomers) [Example 15, [N-Boc-3-(p-guanidinophenyl)-DL-alanyl]-Gly-Asp-Val-OH] gave a concentration for half-maximal inhibition (IC50) of 80 nM. Still for that read-out and setting: the value for `CC(C)[C@H](NC(=O)[C@H](CC(=O)O)NC(=O)CNC(=O)[C@H](CCCNC(=N)N)NC(=O)CNCCN)C(=O)O` [Example 7, Aeg-Arg-Gly-Asp-Val-OH] (H-[Gly(N-2-aminoethyl)]RGDV-OH) was 90 nM.
